Measured values reported in patent publication US20090081170A1, “Cardiac progenitor cells” (priority 2007, published 2009).

What was measured:
[1] = tested on: infarcted mouse hearts; assay: Myocardial infarction model (coronary artery ligation) treated with Tβ4 or vehicle; format: in vivo
Experimental: For in vivo studies, Western blotting, immunofluorescence and immunohistochemistry were performed using standard protocols with the following antibodies: Ki67 (Dako Cytomation), SMαA, sarcomeric α-actinin (Sigma), cardiac myosin binding protein […]-1, CD4, CD8b (all BD Pharmingen), Nkx2.5, VEGF, Tie-2 (all Santa Cruz), GAPDH, Tbx18 (both Chemicon), Isl-1 (clone 39.4D5, Developmental Studies Hybridoma Bank), Tbx18, TNFα, IL-6, IL-10, GFP (full length-detects EYFP), MCP1, cTnT, F4/80, CD45, MPO, (all abcam), Living colours Av peptide, polyclonal and mouse monoclonal JL-8 antibodies (detect EYFP, Clontech) Cx43 (Zymed) and Raldh2 (gift of P. McCaffery). Images were acquired using either a Zeiss Axiolmager with ApoTome or a Zeiss LSM 510 confocal microscope equipped with argon and helium neon lasers using a 63×/1.4 lens. Adult heart samples post myocardial infarction (MI) were kindly provided by James Clark, Cardiovascular Division, King's College London, St. Thomas' Hospital. Briefly, MI was induced in anaesthetised C57B1/6 male mice by ligation of the left anterior descending coronary artery for 30 minutes, followed by reperfusion. Animals were sacrificed one hour, one day or one week post MI and protein extracts prepared in Laemmli buffer for Western blotting and immunoassay to determine levels of Tβ4 and AcSDKP, respectively. For in vivo studies, one hour after recovery, animals received intraperitoneal injection of Tβ4 (150 μg in 0.1 ml PBS) or vehicle (0.1 ml PBS) as previously reported. Further injections were given after 2 and 4 days and hearts were harvested after 2, 4 and 7 days following ligation and prepared for western analysis and histological sectioning, as described above. Infarcts with equivalent extent of injury in the left ventricle were assessed for immunofluorescence and cell counts. […] We next determined the presence of adult EPDC-derived cardiomyocytes in vivo, in both a gain of function (intact heart) mouse model, established by intraperitoneal injection of Tβ4 or vehicle (PBS) into wild type adult mice, and an injury model of myocardial infarctions (by coronary artery ligation) in adult mice (n=27 MIs in total), treated with either Tβ4 (n=13) or vehicle (n=14, injection regimen as for gain of function; refer to Methods). Hearts were assessed using a combination of western and immunofluorescence analyses for myocardial markers after 2, 4, 7, 14 and 28 days for the gain of function model and 2, 4 and 7 days for the injury model.

[2] = tested on: adult intact mouse hearts; assay: Gain of function model: Tβ4 administration to intact adult mice (western, immunofluorescence, perfused vessel counts); format: in vivo
Experimental: For in vivo studies, Western blotting, immunofluorescence and immunohistochemistry were performed using standard protocols with the following antibodies: Ki67 (Dako Cytomation), SMαA, sarcomeric α-actinin (Sigma), cardiac myosin binding protein C (E. Ehler), CD31/PECAM-1, CD4, CD8b (all BD Pharmingen), Nkx2.5, VEGF, Tie-2 (all Santa Cruz), GAPDH, Tbx18 (both Chemicon), Isl-1 (clone 39.4D5, Developmental Studies Hybridoma Bank), Tbx18, TNFα, IL-6, IL-10, GFP (full length—detects EYFP), MCP1, cTnT, F4/80, CD45, MPO, (all abcam), Living colours Av peptide, polyclonal and mouse monoclonal JL-8 antibodies (detect EYFP, Clontech) Cx43 (Zymed) and Raldh2 (gift of P. McCaffery). Images were acquired using either a Zeiss Axiolmager with ApoTome or a Zeiss LSM 510 confocal microscope equipped with argon and helium neon lasers using a 63×/1.4 lens.
Wild type (WT) C57B1/6 or Cx40-EGFP [46] male mice (25-30 g) received intraperitoneal injection of Tβ4 (150 μg in 0.1 ml PBS) or vehicle (0.1 ml PBS) every 2 days for up to 1 week or every 3 days for up to 4 weeks. Doses were based on previous studies. WT hearts were harvested after 2, 4, 7, 14 and 28 days and bisected transversely; the apex was snap frozen for protein preparation and the remaining tissue was fixed in 4% PFA for 2 hours for cryosectioning. Cx40-EGFP hearts were harvested after 7, 14 and 28 days and fixed, as above, for cryosectioning. Prior to harvest at the 28 d time point, Cx40-EGFP mice were intravenously injected with rhodamine-conjugated dextran (70 kDa, Invitrogen) at 2 mg per 20 g body weight, to assess coronary vessel perfusion.
The minimum requirement for Tβ4 to promote EPDC-derived vascular endothelial and smooth muscle cells, was reported previously. To investigate whether Tβ4 could stimulate new vessel growth in vivo, we established a gain of function mouse model by intraperitoneal injection of Tβ4 or vehicle (injections of 150 μg in 0.1 ml PBS every 2 days for first 4 days and every 3 days thereafter) into wild type 8 week old adult mice. Hearts were examined by western analysis and immunohistochemistry (IHC) for vascular markers and evidence of new coronaries at 2, 4, 7, 14 and 28 days post-treatment.
We next determined the presence of adult EPDC-derived cardiomyocytes in vivo, in both a gain of function (intact heart) mouse model, established by intraperitoneal injection of Tβ4 or vehicle (PBS) into wild type adult mice, and an injury model of myocardial infarctions (by coronary artery ligation) in adult mice (n=27 MIs in total), treated with either Tβ4

[3] = infarcted hearts, 2 days of treatment, n=3, 35 fields
[4] = intact heart, 2 days of treatment
[5] = intact heart, days 2-7 of treatment, 150 μg i.p.

Substance: Thymosin β4 [Tβ4]
- TNF-α reduction vs vehicle (western) ([1]; 2 days of treatment post-MI): 6.2 fold
- IL-10 increase compared to control (western) ([1]; 2 days post-MI): 8.1 fold
- infarct area (Image J) ([1]; 2 days post-MI, section through left ventricle wall): 0.292 mm^2
- increase in vessel area vs control (Image J) ([1]; 7 days of treatment post-MI): 2 fold
- vessel area/field ([1]; 7 days of treatment post-MI, n=7): 10.67+/−0.55%
- scar volume vs vehicle (trichrome) ([1]; 7 days post MI): reduced scar volume
- epicardial fibrosis, share of the epicardium affected ([1]; 7 days post MI, trichrome): ≤ 20%
- EPDC-derived (EYFP+) cardiomyocytes, % of total cardiomyocytes per field ([1]; Gata5-EYFP mice, 7 days treatment post-MI): 14.1%
- EYFP+ cardiomyocytes, mean number of positive cells/field +/−SEM ([1]; Gata5-EYFP mice, 7 days treatment post-MI, n=6, 38 fields): 49.53+/−4.68 cells/field
- Raldh2 up-regulation vs vehicle (western) ([1]; d2 MI): 1.8 fold
- Tbx18 up-regulation vs vehicle (western) ([1]; d2 MI): 2.8 fold
- infiltration of MPO+ neutrophils vs controls ([1]; d2 and d4 post-MI): reduced infiltration
- macrophages (F4/80+) vs vehicle ([1]; d2 post MI): elevated
- CD4:CD8 ratio ([1]; d4 post-MI): 7.4
- CD4:CD8 ratio ([1]; d7 post-MI): 10.8
- PECAM protein expression increase (western) ([1]; d7 post-MI): 9.6 fold
- SMαA protein expression increase (western) ([1]; d7 post-MI): 8.3 fold
- macrophages (F4/80+) vs vehicle ([1]; d7 post-MI): reduced
- fibroblast number (EYFP+/procollagen type I) vs control ([1]; d7 post-MI, p=0.57): did not vary significantly
- EYFP+ cardiomyocytes located in remote myocardium, % of total EYFP+ cardiomyocytes per field ([1]; day 7 post-MI, left ventricle): 40%
- EYFP+ cardiomyocytes proximal to the border zone, % of total EYFP+ cardiomyocytes per field ([1]; day 7 post-MI, left ventricle): 58%
- IL-6 reduction vs vehicle (western) ([1]; early stages post-MI): 4.1 fold
- MCP-1 up-regulation (western) ([1]; early, d2 post-MI): 3.9 fold
- proliferation of cells (Ki67) within the epicardium and subepicardial space ([1]; following MI): increase in proliferation
- Isl1 elevated levels (western) ([1]; from 2 days post-MI onwards): 5.1 fold
- Nkx2.5 elevated levels (western) ([1]; from 2 days post-MI onwards): 1.9 fold
- Raldh2+ mean number of positive cells per field +/−SEM [1, 3]: 41.8+/−1.9 cells per field
- Tbx18+ mean number of positive cells per field +/−SEM [1, 3]: 36.1+/−3.1 cells per field
- increase in number of endothelial (PECAM+) cells vs vehicle ([1]; infarcted hearts, 4 days): 3.5 fold
- PECAM+ number of cells per field +/−SEM ([1]; infarcted hearts, 4 days, n=3): 150.33+/−10.94 cells per field
- MCP-1 levels (in words) ([1]; initial stages post-MI): significantly reduced levels
- levels of MMP3 and -9 ([1]; post MI): reduced levels
- levels of TIMP1 and -2 ([1]; post MI): without an effect
- P-NFκB positive cells at the infarct border zone ([1]; post-MI, immunostaining): reduced number
- increase in numbers of perfused coronary vessels vs controls ([2]; Cx40-EGFP mice, rhodamine-dextran, 28 days of treatment): 1.2 fold
- number of perfused vessels per section +/−SEM ([2]; Cx40-EGFP mice, rhodamine-dextran, 28 days of treatment, n=3): 70.7+/−3.62
- Raldh2 up-regulation vs vehicle (western) ([2]; gain of function, intact heart): 6.3 fold
- Tbx18 up-regulation vs vehicle (western) ([2]; gain of function, intact heart): 5.3 fold
- phospho-histone H3 (P-HH3) elevated levels (proliferation) ([2]; intact heart): 9.1 fold
- PECAM increase vs controls (western) [2, 4]: 9.3 fold
- SMαA increase vs controls (western) [2, 4]: 9.8 fold
- Tie2 increase vs controls (western) [2, 4]: 2 fold
- VEGF increase vs controls (western) [2, 4]: 4.8 fold
- Isl-1 up-regulation vs vehicle (western) [2, 5]: 4.3 fold
- Nkx2.5 up-regulation vs vehicle (western) [2, 5]: 2.7 fold
